From US20260132132A1, “3A,4,5,6-TETRAHYDRO-1 H-PYRAZOLO[3,4-C]PYRIDIN-7(7AH)-ONE DERIVATIVES AS FACTOR XIIA INHIBITORS” (KALVISTA PHARMACEUTICALS LIMITED, priority 2022, published 2026)

Assays:
[1] = target: T1, Human Factor XIIa (hFXIIa) (Homo sapiens, UniProt P00748); test: Determination of Human Factor XIIa (hFXIIa) inhibition, fluorogenic substrate IC50 assay; type: biochemical; conditions: fluorogenic substrate H-DPro-Phe-Arg-AFC at Km, 25° C., read-out: Human FXIIa IC50
T1 construct: purchased Enzyme Research Laboratories
T1 sequence (P00748 373-615 limits assumed): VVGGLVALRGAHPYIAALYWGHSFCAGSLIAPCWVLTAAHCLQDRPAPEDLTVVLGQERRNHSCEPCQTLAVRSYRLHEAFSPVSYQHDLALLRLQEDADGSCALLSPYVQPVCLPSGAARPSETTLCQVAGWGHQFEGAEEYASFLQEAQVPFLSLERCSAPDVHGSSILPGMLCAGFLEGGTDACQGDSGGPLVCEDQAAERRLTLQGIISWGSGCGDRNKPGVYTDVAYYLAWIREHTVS
T1 sequence (P00748 20-372 partner limits assumed): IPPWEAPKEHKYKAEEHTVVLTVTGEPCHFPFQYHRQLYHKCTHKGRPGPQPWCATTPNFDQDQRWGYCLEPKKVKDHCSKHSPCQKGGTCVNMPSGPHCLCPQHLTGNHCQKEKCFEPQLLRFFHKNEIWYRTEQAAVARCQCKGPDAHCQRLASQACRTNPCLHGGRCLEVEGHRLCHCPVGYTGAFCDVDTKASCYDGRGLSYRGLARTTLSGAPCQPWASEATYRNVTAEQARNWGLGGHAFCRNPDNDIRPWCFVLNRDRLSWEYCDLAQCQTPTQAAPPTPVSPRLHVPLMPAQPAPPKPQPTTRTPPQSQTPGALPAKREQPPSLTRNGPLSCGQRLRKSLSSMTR
Experimental: Determination of Human Factor XIIa (hFXIIa) inhibition
The Km for the cleavage of the substrate by hFXIIa was determined by standard transformation of the Michaelis-Menten equation, with subsequent inhibition assays performed at substrate Km concentration.

FXa = FXa (Homo sapiens, UniProt P00742); test: Related protease inhibition: FXa, fluorogenic substrate; type: biochemical; conditions: fluorogenic substrate at Km, 25° C.; H1-H3 = % activity at 40 μM
Sequence of FXa (P00742 235-488 limits assumed): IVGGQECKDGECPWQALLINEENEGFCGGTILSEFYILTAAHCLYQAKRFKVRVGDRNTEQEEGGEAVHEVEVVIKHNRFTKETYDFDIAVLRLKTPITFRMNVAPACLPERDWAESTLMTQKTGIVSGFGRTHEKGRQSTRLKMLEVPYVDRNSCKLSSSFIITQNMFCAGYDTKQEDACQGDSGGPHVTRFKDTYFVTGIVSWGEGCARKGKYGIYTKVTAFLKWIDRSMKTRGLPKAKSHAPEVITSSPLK
Sequence of FXa (P00742 41-179 partner limits assumed): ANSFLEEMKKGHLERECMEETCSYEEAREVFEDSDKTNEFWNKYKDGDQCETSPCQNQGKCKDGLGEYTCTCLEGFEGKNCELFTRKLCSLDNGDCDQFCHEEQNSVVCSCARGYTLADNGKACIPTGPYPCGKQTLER
Experimental: Human serine protease enzyme Plasma Kallikrein, KLK1, FXa, Plasmin, Thrombin and Trypsin were assayed for enzymatic activity using an appropriate fluorogenic substrate at Km concentration, FXIa at fixed substrate concentration of 100 μM and various concentrations of the test compound.

IC50 [1] [µM]	IC50 (FXa) [µM]	Compound
0.1 to 0.3	3 to 10	Cc1cc(CNC(=O)c2nn(-c3cccc(Cl)c3)c3c2CCN(c2ccc4c(c2)C(=O)N(C)CCC4)C3=O)nn1C [Example 1238, 1-(3-Chlorophenyl)-N-[(1,5-dimethylpyrazol-3-yl)methyl]-6-(2-methyl-1-oxo-4,5-dihydro-3H-2-benzazepin-8-yl)-7-oxo-4,5-dihydropyrazolo[3,4-c]pyridine-3-carboxamide]
0.1 to 0.3	10 to 40	CN1CCCc2ccc(N3CCc4c(C(=O)NCC5CC5)nn(-c5cccc(Cl)c5)c4C3=O)cc2C1=O [Example 1239, 1-(3-chlorophenyl)-N-(cyclopropylmethyl)-6-(2-methyl-1-oxo-2,3,4,5-tetrahydro-1H-benzo[c]azepin-8-yl)-7-oxo-4,5,6,7-tetrahydro-1H-pyrazolo[3,4-c]pyridine-3-carboxamide]
0.1 to 0.3	> 40	CN1CCc2ccc(N3CCc4c(C(=O)NCc5cc[nH]n5)nn(-c5cccc(Cl)c5)c4C3=O)cc2C1=O [Example 1245, N-((1H-pyrazol-3-yl)methyl)-1-(3-chlorophenyl)-6-(2-methyl-1-oxo-1,2,3,4-tetrahydroisoquinolin-7-yl)-7-oxo-4,5,6,7-tetrahydro-1H-pyrazolo[3,4-c]pyridine-3-carboxamide]
0.1 to 0.3	> 40	Cc1nc(CNC(=O)c2nn(-c3cccc(Cl)c3)c3c2CCN(c2ccc4c(c2)C(=O)N(C)CC4)C3=O)n[nH]1 [Example 1247, 1-(3-chlorophenyl)-6-(2-methyl-1-oxo-1,2,3,4-tetrahydroisoquinolin-7-yl)-N-((5-methyl-1H-1,2,4-triazol-3-yl)methyl)-7-oxo-4,5,6,7-tetrahydro-1H-pyrazolo[3,4-c]pyridine-3-carboxamide]
0.1 to 0.3	10 to 40	Cc1c[nH]nc1CNC(=O)c1nn(-c2cccc(Cl)c2)c2c1CCN(c1ccc3c(c1)C(=O)N(C)CC3)C2=O [Example 1248, 1-(3-chlorophenyl)-6-(2-methyl-1-oxo-1,2,3,4-tetrahydroisoquinolin-7-yl)-N-((4-methyl-1H-pyrazol-3-yl)methyl)-7-oxo-4,5,6,7-tetrahydro-1H-pyrazolo[3,4-c]pyridine-3-carboxamide]
0.3 to 1	> 40	CN1CCc2ccc(N3CCc4c(C(=O)NCC5(CO)CC5)nn(-c5cccc(Cl)c5)c4C3=O)cc2C1=O [Example 1250, 1-(3-chlorophenyl)-N-((1-(hydroxymethyl)cyclopropyl)methyl)-6-(2-methyl-1-oxo-1,2,3,4-tetrahydroisoquinolin-7-yl)-7-oxo-4,5,6,7-tetrahydro-1H-pyrazolo[3,4-c]pyridine-3-carboxamide]
0.3 to 1	> 40	CN1CCc2ccc(N3CCc4c(C(=O)NCC5(CO)COC5)nn(-c5cccc(Cl)c5)c4C3=O)cc2C1=O [Example 1252, 1-(3-chlorophenyl)-N-((3-(hydroxymethyl)oxetan-3-yl)methyl)-6-(2-methyl-1-oxo-1,2,3,4-tetrahydroisoquinolin-7-yl)-7-oxo-4,5,6,7-tetrahydro-1H-pyrazolo[3,4-c]pyridine-3-carboxamide]
0.1 to 0.3	> 40	O=C(NCC1CC1)c1nn(-c2cccc(Cl)c2)c2c1CCN(c1ccc3c(c1)C(=O)N(CCF)CC3)C2=O [Example 1253, 1-(3-chlorophenyl)-N-(cyclopropylmethyl)-6-(2-(2-fluoroethyl)-1-oxo-1,2,3,4-tetrahydroisoquinolin-7-yl)-7-oxo-4,5,6,7-tetrahydro-1H-pyrazolo[3,4-c]pyridine-3-carboxamide]
0.01 to 0.1	10 to 40	Cc1cc(CNC(=O)c2nn(-c3cccc(Cl)c3)c3c2CCN(c2ccc4c(c2)C(=O)N(CCF)CC4)C3=O)nn1C [Example 1254, 1-(3-chlorophenyl)-N-((1,5-dimethyl-1H-pyrazol-3-yl)methyl)-6-(2-(2-fluoroethyl)-1-oxo-1,2,3,4-tetrahydroisoquinolin-7-yl)-7-oxo-4,5,6,7-tetrahydro-1H-pyrazolo[3,4-c]pyridine-3-carboxamide]
0.01 to 0.1	> 40	Cc1cc(C)c(CNC(=O)c2nn(-c3cccc(Cl)c3)c3c2CCN(c2ccc4c(c2)C(=O)N(CCO)CC4)C3=O)cn1 [Example 1256, 1-(3-chlorophenyl)-N-((4,6-dimethylpyridin-3-yl)methyl)-6-(2-(2-hydroxyethyl)-1-oxo-1,2,3,4-tetrahydroisoquinolin-7-yl)-7-oxo-4,5,6,7-tetrahydro-1H-pyrazolo[3,4-c]pyridine-3-carboxamide]
0.3 to 1	> 40	O=C(NCC1CC1)c1nn(-c2cccc(Cl)c2)c2c1CCN(c1ccc3c(c1)C(=O)N(CC1CCOC1)CC3)C2=O (centres unmarked) [Example 1257, 1-(3-chlorophenyl)-N-(cyclopropylmethyl)-7-oxo-6-(1-oxo-2-((tetrahydrofuran-3-yl)methyl)-1,2,3,4-tetrahydroisoquinolin-7-yl)-4,5,6,7-tetrahydro-1H-pyrazolo[3,4-c]pyridine-3-carboxamide]
0.1 to 0.3	> 40	Cc1cc(CNC(=O)c2nn(-c3cccc(Cl)c3)c3c2CCN(c2ccc4c(c2)C(=O)N(CC2CCOC2)CC4)C3=O)nn1C (centres unmarked) [Example 1258, 1-(3-chlorophenyl)-N-((1,5-dimethyl-1H-pyrazol-3-yl)methyl)-7-oxo-6-(1-oxo-2-((tetrahydrofuran-3-yl)methyl)-1,2,3,4-tetrahydroisoquinolin-7-yl)-4,5,6,7-tetrahydro-1H-pyrazolo[3,4-c]pyridine-3-carboxamide]
0.3 to 1	> 40	O=C(NCC1CCOC1)c1nn(-c2cccc(Cl)c2)c2c1CCN(c1ccc3c(c1)C(=O)N(CCO)CC3)C2=O (centres unmarked) [Example 1260, 1-(3-chlorophenyl)-6-(2-(2-hydroxyethyl)-1-oxo-1,2,3,4-tetrahydroisoquinolin-7-yl)-7-oxo-N-((tetrahydrofuran-3-yl)methyl)-4,5,6,7-tetrahydro-1H-pyrazolo[3,4-c]pyridine-3-carboxamide]
0.3 to 1	> 40	COCCN1CCc2ccc(N3CCc4c(C(=O)NCC5CC5)nn(-c5cccc(Cl)c5)c4C3=O)cc2C1=O [Example 1261, 1-(3-chlorophenyl)-N-(cyclopropylmethyl)-6-(2-(2-methoxyethyl)-1-oxo-1,2,3,4-tetrahydroisoquinolin-7-yl)-7-oxo-4,5,6,7-tetrahydro-1H-pyrazolo[3,4-c]pyridine-3-carboxamide]
0.1 to 0.3	10 to 40	COCCN1CCc2ccc(N3CCc4c(C(=O)NCc5cc(C)n(C)n5)nn(-c5cccc(Cl)c5)c4C3=O)cc2C1=O [Example 1262, 1-(3-chlorophenyl)-N-((1,5-dimethyl-1H-pyrazol-3-yl)methyl)-6-(2-(2-methoxyethyl)-1-oxo-1,2,3,4-tetrahydroisoquinolin-7-yl)-7-oxo-4,5,6,7-tetrahydro-1H-pyrazolo[3,4-c]pyridine-3-carboxamide]
0.3 to 1	10 to 40	Cc1cc(CNC(=O)c2nn(-c3cccc(Cl)c3)c3c2CCN(c2ccc4c(c2)C(=O)N(C)CC4)C3=O)n(C)n1 [Example 1264, 1-(3-chlorophenyl)-N-((1,3-dimethyl-1H-pyrazol-5-yl)methyl)-6-(2-methyl-1-oxo-1,2,3,4-tetrahydroisoquinolin-7-yl)-7-oxo-4,5,6,7-tetrahydro-1H-pyrazolo[3,4-c]pyridine-3-carboxamide]
0.3 to 1	> 40	CO[C@H]1CCOC[C@H]1NC(=O)c1nn(-c2cccc(Cl)c2)c2c1CCN(c1ccc3c(c1)C(=O)N(C)CC3)C2=O [Example 1265, 1-(3-chlorophenyl)-N-((3R,4S)-4-methoxytetrahydro-2H-pyran-3-yl)-6-(2-methyl-1-oxo-1,2,3,4-tetrahydroisoquinolin-7-yl)-7-oxo-4,5,6,7-tetrahydro-1H-pyrazolo[3,4-c]pyridine-3-carboxamide]
0.3 to 1	> 40	CN1CCc2ccc(N3CCc4c(C(=O)NC5(C)CCOCC5)nn(-c5cccc(Cl)c5)c4C3=O)cc2C1=O [Example 1266, 1-(3-chlorophenyl)-6-(2-methyl-1-oxo-1,2,3,4-tetrahydroisoquinolin-7-yl)-N-(4-methyltetrahydro-2H-pyran-4-yl)-7-oxo-4,5,6,7-tetrahydro-1H-pyrazolo[3,4-c]pyridine-3-carboxamide]
0.3 to 1	> 40	Cc1ccc(CNC(=O)c2nn(-c3cccc(Cl)c3)c3c2CCN(c2ccc4c(c2)C(=O)N(C)CC4)C3=O)nn1 [Example 1267, 1-(3-chlorophenyl)-6-(2-methyl-1-oxo-1,2,3,4-tetrahydroisoquinolin-7-yl)-N-((6-methylpyridazin-3-yl)methyl)-7-oxo-4,5,6,7-tetrahydro-1H-pyrazolo[3,4-c]pyridine-3-carboxamide]
